Results reported in the supplement of paper PMC10627819.

Assays:
B. subtilis 168 [1] = assay: fitness (endpoint OD595 vs no drug) (fraction); higher = more growth
In short: (§1)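 Fitness was measured as bacterial growth in 384-well plates inoculated at OD595 0.01 (30 µl, or 55 µl for S. pneumoniae). Media were TSB, LB Lennox or CY, at 37 °C. OD595 was read every 30 min for 14 h and background-subtracted against the first reading. Fitness is OD595 at the transition into stationary phase divided by the robust mean of no-drug control wells, capped at 1.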

S. pneumoniae D39V [2] = assay: as above
In short: as §1

S. aureus Newman = assay: Bliss interaction score (quartile over a dose matrix) (fitness difference); higher = more antagonism (negative = synergy)
In short: (§2)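 Fitness was defined as normalised growth: OD595 at the start of stationary phase divided by the plate's robust no-drug mean and capped at 1. Single-drug fitness was inferred from combination measurements. The Bliss score is observed fitness minus the product of the single-drug values, summarised by quartiles across technical, biological and donor/recipient replicates.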

B. subtilis 168 [3] = assay: as above
In short: as §2

S. pneumoniae D39V [4] = assay: as above
In short: as §2

S. aureus DSM 20231 = assay: as above
In short: as §2
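Wherever Bliss interaction score (quartile over a dose matrix) is given: first quartile when negative (synergy) and third quartile when positive (antagonism).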
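Wherever fitness (endpoint OD595 vs no drug) is given: OD595 on entry to stationary phase over no-drug wells; at most 1.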

CO/N=C(\C(=O)N[C@@H]1C(=O)N2C(C(=O)O)=C(COC(C)=O)CS[C@H]12)c1csc(N)n1 [Cefotaxime] + C[C@H]1COc2c(N3CCN(C)CC3)c(F)cc3c(=O)c(C(=O)O)cn1c23 [Levofloxacin]
fitness, B. subtilis 168 [1], one replicate
Conditions	first compound 0.00775 µg/mL	first compound 0.0155 µg/mL	first compound 0.031 µg/mL	first compound 0.0625 µg/mL	first compound 0.125 µg/mL	first compound 0.25 µg/mL
partner 0.001 µg/mL	–	–	–	0.491	0.378	0.158
partner 0.002 µg/mL	0.874	0.691	0.57	0.382	0.311	0.158
partner 0.0039 µg/mL	0.834	0.683	0.565	0.418	0.306	0.128
partner 0.0078 µg/mL	0.812	0.659	0.496	–	–	–

Conditions	fitness
B. subtilis 168 [1], first compound 0.5 µg/mL, partner 0.0312 µg/mL	0.0483
B. subtilis 168 [1], first compound 0.5 µg/mL, partner 0.0625 µg/mL	0.0584
B. subtilis 168 [1], first compound 0.5 µg/mL, partner 0.125 µg/mL	0.0586
B. subtilis 168 [1], first compound 1 µg/mL, partner 0.0312 µg/mL	0.0414
B. subtilis 168 [1], first compound 1 µg/mL, partner 0.0625 µg/mL	0.0443
B. subtilis 168 [1], first compound 1 µg/mL, partner 0.125 µg/mL	0.0448
B. subtilis 168 [1], first compound 2 µg/mL, partner 0.0312 µg/mL	0.0456
B. subtilis 168 [1], first compound 2 µg/mL, partner 0.0625 µg/mL	0.0537
B. subtilis 168 [1], first compound 2 µg/mL, partner 0.125 µg/mL	0.0738
S. pneumoniae D39V [2], first compound 0.0018 µg/mL, partner 0.1725 µg/mL	0.986
S. pneumoniae D39V [2], first compound 0.0018 µg/mL, partner 0.2 µg/mL	0.966
S. pneumoniae D39V [2], first compound 0.0018 µg/mL, partner 0.345 µg/mL	0.956
S. pneumoniae D39V [2], first compound 0.0018 µg/mL, partner 0.4 µg/mL	0.925
S. pneumoniae D39V [2], first compound 0.0018 µg/mL, partner 0.69 µg/mL	0.701
S. pneumoniae D39V [2], first compound 0.0018 µg/mL, partner 0.8 µg/mL	0.632
S. pneumoniae D39V [2], first compound 0.0035 µg/mL, partner 0.1725 µg/mL	0.985
S. pneumoniae D39V [2], first compound 0.0035 µg/mL, partner 0.2 µg/mL	0.943
S. pneumoniae D39V [2], first compound 0.0035 µg/mL, partner 0.345 µg/mL	0.939
S. pneumoniae D39V [2], first compound 0.0035 µg/mL, partner 0.4 µg/mL	0.894
S. pneumoniae D39V [2], first compound 0.0035 µg/mL, partner 0.69 µg/mL	0.656
S. pneumoniae D39V [2], first compound 0.0035 µg/mL, partner 0.8 µg/mL	0.611
S. pneumoniae D39V [2], first compound 0.007 µg/mL, partner 0.1725 µg/mL	0.824
S. pneumoniae D39V [2], first compound 0.007 µg/mL, partner 0.2 µg/mL	0.922
S. pneumoniae D39V [2], first compound 0.007 µg/mL, partner 0.345 µg/mL	0.731
S. pneumoniae D39V [2], first compound 0.007 µg/mL, partner 0.4 µg/mL	0.846
S. pneumoniae D39V [2], first compound 0.007 µg/mL, partner 0.8 µg/mL	0.548

Conditions	Bliss interaction score
B. subtilis 168 [3]	0.0631
S. aureus DSM 20231	-0.0398
S. aureus Newman	0.0336
S. pneumoniae D39V [4]	0.112

C[C@@H]1O[C@@H]1P(=O)(O)O [Fosfomycin] + CN(C)C(=O)C(CCN1CCC(O)(c2ccc(Cl)cc2)CC1)(c1ccccc1)c1ccccc1 [Loperamide]
fitness
Conditions	first compound 1.25 µg/mL	first compound 1.562 µg/mL	first compound 2.5 µg/mL	first compound 3.124 µg/mL	first compound 5 µg/mL	first compound 6.248 µg/mL
B. subtilis 168 [1], partner 25 µg/mL	–	0.743	–	0.625	–	0.534
B. subtilis 168 [1], partner 100 µg/mL	–	0.0187	–	0.0366	–	0.011
S. pneumoniae D39V [2], partner 17.14 µg/mL	0.957	–	0.952	–	0.722	–
S. pneumoniae D39V [2], partner 20 µg/mL	≥ 1	–	0.985	–	0.81	–
S. pneumoniae D39V [2], partner 34.28 µg/mL	0.954	–	0.961	–	0.74	–
S. pneumoniae D39V [2], partner 40 µg/mL	≥ 1	–	≥ 1	–	0.77	–

S. pneumoniae D39V [2], partner 68.57 µg/mL, one replicate
Conditions	fitness
first compound 1.25 µg/mL	0.969
first compound 2.5 µg/mL	0.515
first compound 5 µg/mL	0.861

Conditions	Bliss interaction score
B. subtilis 168 [3]	0.305
S. aureus DSM 20231	0.116
S. aureus Newman	-0.0773
S. pneumoniae D39V [4]	0.0632

C[C@H]1c2cccc(O)c2C(=O)C2=C(O)[C@]3(O)C(=O)C(C(N)=O)=C(O)[C@@H](N(C)C)[C@@H]3[C@@H](O)[C@@H]21 [Doxycycline] + C[C@@H]1O[C@@H]1P(=O)(O)O [Fosfomycin]
fitness
Conditions	partner 1.25 µg/mL	partner 1.562 µg/mL	partner 2.5 µg/mL	partner 3.124 µg/mL	partner 5 µg/mL	partner 6.248 µg/mL
B. subtilis 168 [1], first compound 0.02 µg/mL	–	0.752	–	0.645	–	0.556
B. subtilis 168 [1], first compound 0.04 µg/mL	–	0.699	–	0.56	–	0.419
B. subtilis 168 [1], first compound 0.08 µg/mL	–	0.5	–	0.364	–	0.253
S. pneumoniae D39V [2], first compound 0.0155 µg/mL	0.894	–	0.862	–	0.791	–
S. pneumoniae D39V [2], first compound 0.031 µg/mL	0.799	–	0.804	–	0.742	–

fitness, S. pneumoniae D39V [2], one replicate
Conditions	partner 1.25 µg/mL	partner 2.5 µg/mL	partner 5 µg/mL
first compound 0.003875 µg/mL	0.969	0.883	0.753
first compound 0.00775 µg/mL	0.97	0.915	0.814

Conditions	Bliss interaction score
B. subtilis 168 [3]	0.131
S. aureus DSM 20231	-0.153
S. aureus Newman	-0.113
S. pneumoniae D39V [4]	-0.096

C[C@H]1c2cccc(O)c2C(=O)C2=C(O)[C@]3(O)C(=O)C(C(N)=O)=C(O)[C@@H](N(C)C)[C@@H]3[C@@H](O)[C@@H]21 [Doxycycline] + C[C@H]1COc2c(N3CCN(C)CC3)c(F)cc3c(=O)c(C(=O)O)cn1c23 [Levofloxacin]
fitness, one replicate
Conditions	first compound 0.003875 µg/mL	first compound 0.00775 µg/mL	first compound 0.02 µg/mL	first compound 0.031 µg/mL	first compound 0.04 µg/mL	first compound 0.062 µg/mL	first compound 0.08 µg/mL
B. subtilis 168 [1], partner 0.001 µg/mL	–	–	0.929	–	0.859	–	0.735
B. subtilis 168 [1], partner 0.0078 µg/mL	–	–	0.989	–	0.859	–	0.712
S. pneumoniae D39V [2], partner 0.2 µg/mL	0.984	0.927	–	0.822	–	0.712	–
S. pneumoniae D39V [2], partner 0.4 µg/mL	0.858	0.838	–	0.816	–	0.687	–
S. pneumoniae D39V [2], partner 0.8 µg/mL	0.581	0.62	–	0.697	–	0.595	–

Conditions	fitness
B. subtilis 168 [1], first compound 0.02 µg/mL, partner 0.002 µg/mL	0.937
B. subtilis 168 [1], first compound 0.02 µg/mL, partner 0.0039 µg/mL	0.939
B. subtilis 168 [1], first compound 0.02 µg/mL, partner 0.0312 µg/mL	0.0328
B. subtilis 168 [1], first compound 0.02 µg/mL, partner 0.0625 µg/mL	0.0358
B. subtilis 168 [1], first compound 0.02 µg/mL, partner 0.125 µg/mL	0.0474
B. subtilis 168 [1], first compound 0.04 µg/mL, partner 0.002 µg/mL	0.784
B. subtilis 168 [1], first compound 0.04 µg/mL, partner 0.0039 µg/mL	0.817
B. subtilis 168 [1], first compound 0.04 µg/mL, partner 0.0312 µg/mL	0.0347
B. subtilis 168 [1], first compound 0.04 µg/mL, partner 0.0625 µg/mL	0.032
B. subtilis 168 [1], first compound 0.04 µg/mL, partner 0.125 µg/mL	0.0298
B. subtilis 168 [1], first compound 0.08 µg/mL, partner 0.002 µg/mL	0.656
B. subtilis 168 [1], first compound 0.08 µg/mL, partner 0.0039 µg/mL	0.681
B. subtilis 168 [1], first compound 0.08 µg/mL, partner 0.0312 µg/mL	0.0307
B. subtilis 168 [1], first compound 0.08 µg/mL, partner 0.0625 µg/mL	0.0405
B. subtilis 168 [1], first compound 0.08 µg/mL, partner 0.125 µg/mL	0.0329
S. pneumoniae D39V [2], first compound 0.0155 µg/mL, partner 0.1725 µg/mL	0.895
S. pneumoniae D39V [2], first compound 0.0155 µg/mL, partner 0.2 µg/mL	0.946
S. pneumoniae D39V [2], first compound 0.0155 µg/mL, partner 0.345 µg/mL	0.805
S. pneumoniae D39V [2], first compound 0.0155 µg/mL, partner 0.4 µg/mL	0.887
S. pneumoniae D39V [2], first compound 0.0155 µg/mL, partner 0.69 µg/mL	0.584
S. pneumoniae D39V [2], first compound 0.0155 µg/mL, partner 0.8 µg/mL	0.677
S. pneumoniae D39V [2], first compound 0.031 µg/mL, partner 0.1725 µg/mL	0.889
S. pneumoniae D39V [2], first compound 0.031 µg/mL, partner 0.345 µg/mL	0.795
S. pneumoniae D39V [2], first compound 0.031 µg/mL, partner 0.69 µg/mL	0.485
S. pneumoniae D39V [2], first compound 0.062 µg/mL, partner 0.1725 µg/mL	0.873
S. pneumoniae D39V [2], first compound 0.062 µg/mL, partner 0.345 µg/mL	0.775
S. pneumoniae D39V [2], first compound 0.062 µg/mL, partner 0.69 µg/mL	0.652

Conditions	Bliss interaction score
B. subtilis 168 [3]	0.043
S. aureus DSM 20231	0.075
S. aureus Newman	0.0574
S. pneumoniae D39V [4]	0.0649
